The test system of one data set is toxoplasma RH strain. The data set can be described thus: Anti-toxoplasma effect in cultivated mouse macrophage (Test Example 1). It counts as cell-based, in macrophage of normal ICR mice. The conditions noted are these: 0.1 ppm compound in medium, 37° C., 48 hours. The protocol:
(§1) Normal ICR mice were intraperitoneally injected with 1 ml of a sterilized 0.2% solution of glycogen in saline solution and, after 5 days, intraperitoneally injected with 5 ml of a Hank's solution containing heparin to collect macrophage.
(§2) After centrifugation and washing, the macrophage was diluted with a medium of TC-199 containing 20% of calf serum so that the resulting solution contained about 10^6 cells/ml of macrophage. 1 ml of this suspension was pipetted into a cultivation Petri dish containing circular cover glass of 1.5 cm in diameter, followed by cultivation for 24 hours in an incubator containing 5% of carbon dioxide.
(§3) 5×10^5 toxiplasma RH strain collected on the 2nd day after intraperitoneal infection of mice were brought into contact with the thus cultivated macrophage at 37° C. for about 1 hour, and non-infectingtoxiplasma RH strain were washed away using the same medium followed by adding thereto the same medium.
(§4) A drug-containing group was prepared by adding compound I sodium salt to the medium so that the final concentration of the compound became 0.1 ppm.
(§5) Medical effects were evaluated as follows; After cultivation at 37° C. for 48 hours, May-Grunwald/Giemsa double straining was conducted to determine the percentage of macrophage cells containing therein 1 to 5 toxoplasma or 6 or more toxoplasma, thus the infected control group was compared with the drug-added group.

The subject of the next data set is macrophage. The data set can be described thus: Cytotoxic effect on macrophage, observation under an optical microscope. It is filed as cell-based, ICR mice. The conditions noted are these: 0.1 ppm compound in medium. The protocol: as §1, §2, §3, §4, §5
The next data set concerns Bacillus licheniformis. The data set can be described thus: MIC, antibacterial effects (Test Example 2). It is filed as cell-based. The conditions noted are these: infusion agar medium, read-out: MIC (Minimum Inhibitory Concentration). The protocol:
(§6) MIC (Minimum Inhibitory Concentration) was measured according to the method specified by the Chemotherapeutic Society using a heat infusion agar medium containing compound I sodium salt, to examine antibacterial effects of the compound.

For data set [1], the system named is Bacillus subtilis ATCC 6633. Description: MIC, antibacterial effects (Test Example 2). The conditions noted are these: ATCC6633, infusion agar medium, read-out: MIC (Minimum Inhibitory Concentration). It counts as cell-based. The protocol:
as §6

Data set [2] has as its system Escherichia coli NIHJ C-2. The data set can be described thus: MIC, antibacterial effects (Test Example 2). It is filed as cell-based. The conditions noted are these: NIHJC2, infusion agar medium, read-out: MIC (Minimum Inhibitory Concentration). As for the experimental part:
as §6

Data set [3] concerns Staphylococcus aureus FDA 209 P. Description: MIC, antibacterial effects (Test Example 2). It is filed as cell-based. Conditions: FDA209, infusion agar medium, read-out: MIC (Minimum Inhibitory Concentration). As for the experimental part: as §6
Data set [4] has as its system Staphylococcus aureus Smith. Description: MIC, antibacterial effects (Test Example 2). Conditions: infusion agar medium, read-out: MIC (Minimum Inhibitory Concentration). It is filed as cell-based. As for the experimental part:
as §6

Data set [5] has as its system Staphylococcus aureus TPR-23. The data set can be described thus: MIC, antibacterial effects (Test Example 2). It is filed as cell-based. Conditions: TPR23, infusion agar medium, read-out: MIC (Minimum Inhibitory Concentration). The protocol:
as §6

Data set [6] has as its system Staphylococcus epidermidis IID 866. Description: MIC, antibacterial effects (Test Example 2). It counts as cell-based. Conditions: IID866, infusion agar medium, read-out: MIC (Minimum Inhibitory Concentration). The protocol:
as §6

In data set [7] the test system is Staphylococcus epidermidis TPR-25. Description: MIC, antibacterial effects (Test Example 2). It is filed as cell-based. The conditions noted are these: TPR25, infusion agar medium, read-out: MIC (Minimum Inhibitory Concentration). The protocol:
as §6

Data set [8] concerns Streptococcus faecalis ATCC 8043. The data set can be described thus: MIC, antibacterial effects (Test Example 2). It counts as cell-based. The conditions noted are these: Enterococcus faecalis, ATCC8043, infusion agar medium, read-out: MIC (Minimum Inhibitory Concentration). As for the experimental part: as §6
A short description of data set [9]: Acute toxicity, LD50 in mice (Test Example 3). The arrangement: species or system mice (ddY strain, 4-week old). The conditions noted are these: mouse, in vivo, ip; ddY male mice, intraperitoneal, mortality over 7 consecutive days; 5% gum arabic in saline. The protocol:
Compound I sodium salt and the control drug of dianemycin sodium salt were respectively suspended in a 5% solution of gum arabic in saline solution.
Two groups of 7 ddY strain male mice (4-week old) were intraperitoneally injected with each of the above-described drug suspension. LD50 values (mg/kg) of the compounds were determined from the total mortality per group for 7 consecutive days to examine the acute toxicity.

Counter-ions that a name gives are not always drawn.

Consider `C/C(=C\C(C)C1OC2(CCC(C)(C3CC(O)C(C)C4(OC(C5OC(O)(CO)C(C)CC5C)CC4C)O3)O2)CC(O)C1C)C(=O)C(C)CC(C)C(=O)O` (centres unmarked) [Compound I sodium salt], for which the “Percentage of Toxoplasma-infected Macrophage, 1 to 5 Toxoplasma/cell” value in the data set with toxoplasma RH strain (infected control group 30.8) is 0%. Moreover, in the data set on toxoplasma RH strain (infected control group 31.8), the “Percentage of Toxoplasma-infected Macrophage, 6 or more Toxoplasma/cell” value worked out at 0%. In addition, the cytotoxic effect result in the data set on macrophage is “no cytotoxic effect”. In addition, the MIC in the data set on Bacillus licheniformis was 12.5 µg/mL; in data set [1] it was 25 µg/mL; in data set [2], over 200 µg/mL; in data set [3], 25 µg/mL; in data set [4], 50 µg/mL; in data set [5] it was 50 µg/mL. Further, the MIC in data set [6], in [7] and in data set [8] was 50 µg/mL in each case. Besides, in [9], the LD50 (in general, the dose expected to kill half of the subjects tested) at 168 h was determined as 191 mg/kg.

In turn, `COC1CCC(OC2CC(C3(C)CCC4(CC(O)C(C)C(C(C)/C=C(\C)C(=O)C(C)CC(C)C(=O)O)O4)O3)OC3(OC(C4OC(O)(CO)C(C)CC4C)CC3C)C2C)OC1C` (centres unmarked) [Dianemycin Sodium Salt, reference compound] yielded an LD50 at 168 h in data set [9] of 7.2 mg/kg.

Source of the values: patent US4366311A, “Novel dianemycin derivative” (Taisho Pharmaceutical Co., Ltd., priority 1980, dated 1982).
